According to patent US12415794B2 (Edgewise Therapeutics, Inc., priority 2018, dated 2025):
pIC50: −log10 of the molar value.

Key:
[1] = biological target: skeletal myofibrils (myosin ATPase); assay: Skeletal Myofibril ATPase Assay; format: biochemical
Description: FIG. 7 depicts the buffer preparation procedures of Buffer A and Buffer B for the skeletal myofibril ATPase assay described in Example 12. Buffers were stored on ice until use.
Example 12: Skeletal Myofibril ATPase Assay
Overview: Myosin ATPase activity is assessed by using a coupled reaction system, in which ADP generated by the myosin ATPase function is coupled to the disappearance of NADH through the pyruvate kinase/lactate dehydrogenase (PK-LDH) system. ATPase activity produces ADP, which is used as a substrate for PK to produce pyruvate and regenerate ATP. The pyruvate is then used as a substrate by LDH to oxidize NADH to NAD+. The rate of the reaction is monitored through the time-dependent disappearance of NADH using absorbance at 340 nm. Inhibition of ATPase activity by the assayed compounds is indicated by a reduced rate of NADH loss, relative to vehicle-treated controls, over the experimental time window. To assess the selectivity of the assayed compounds for skeletal myofibrils, the compounds are counter-screened in cardiac myofibrils.
Materials: The following stock solutions and reagents were used in the Skeletal Myofibril ATPase Assay:
Stock Solutions of pCa buffer. Combine PIPES, CaCl2, and EGTA solutions with 70 mL of water. Adjust pH to 7.0 and bring final volume to 100 mL.
Skeletal Myofibril ATPase Assay Procedure: BSA, ATP, NADH, PEP, and DTT solutions were thawed at room temperature, then transferred to ice. Pellet-frozen myofibrils were transferred with approximately twice the required volume into a sufficiently large tube and capped. Myofibrils were thawed by rolling in a water bath for approximately 15 min at room temperature and cooled on ice. Buffers A and B were prepared by adjusting volumes as necessary for required number of wells and stored on ice. 0.5 μL of the compounds to be assayed were added into wells. 25 μL of Buffer A was dispensed into the wells, followed by 25 μL of Buffer B. The wells were measured for absorbance at 340 nm, using a kinetic protocol in which the wells are read every 1.5-2 min for 45 min. The slope of the data was approximated by subtracting the minimum absorbance value from the maximum value for each well. This was accomplished either in the SoftMax Pro software or in a spreadsheet program such as Excel. Using GraphPad Prism 8.0, the data was normalized by assigning a value of 100% to the 1% DMSO vehicle wells. Typically, a normalized 0% value was simply assigned to a (Max−Min) value of 0. The normalized data was fit to a Four Parameter Logistic sigmoidal equation, constraining the bottom to be 0 or greater. Compounds of Table 1, 2, and 3 were tested and results of the assay appear in Tables 4a-4c. A=IC50 is less than or equal to 10 μM; B=IC50 is greater than 10 μM and less than 100 μM; C=IC50 is greater than 100 μM.

[2] = biological target: T1, cardiac myofibrils (myosin ATPase); assay: Cardiac Myofibril ATPase Assay (counter screen); format: biochemical; details: myofibrils 1.0 mg/mL, KCl omitted
T1 construct: frozen myofibril pellets obtained from cardiac tissue; from tissue
T1 sequence (P12883 whole entry): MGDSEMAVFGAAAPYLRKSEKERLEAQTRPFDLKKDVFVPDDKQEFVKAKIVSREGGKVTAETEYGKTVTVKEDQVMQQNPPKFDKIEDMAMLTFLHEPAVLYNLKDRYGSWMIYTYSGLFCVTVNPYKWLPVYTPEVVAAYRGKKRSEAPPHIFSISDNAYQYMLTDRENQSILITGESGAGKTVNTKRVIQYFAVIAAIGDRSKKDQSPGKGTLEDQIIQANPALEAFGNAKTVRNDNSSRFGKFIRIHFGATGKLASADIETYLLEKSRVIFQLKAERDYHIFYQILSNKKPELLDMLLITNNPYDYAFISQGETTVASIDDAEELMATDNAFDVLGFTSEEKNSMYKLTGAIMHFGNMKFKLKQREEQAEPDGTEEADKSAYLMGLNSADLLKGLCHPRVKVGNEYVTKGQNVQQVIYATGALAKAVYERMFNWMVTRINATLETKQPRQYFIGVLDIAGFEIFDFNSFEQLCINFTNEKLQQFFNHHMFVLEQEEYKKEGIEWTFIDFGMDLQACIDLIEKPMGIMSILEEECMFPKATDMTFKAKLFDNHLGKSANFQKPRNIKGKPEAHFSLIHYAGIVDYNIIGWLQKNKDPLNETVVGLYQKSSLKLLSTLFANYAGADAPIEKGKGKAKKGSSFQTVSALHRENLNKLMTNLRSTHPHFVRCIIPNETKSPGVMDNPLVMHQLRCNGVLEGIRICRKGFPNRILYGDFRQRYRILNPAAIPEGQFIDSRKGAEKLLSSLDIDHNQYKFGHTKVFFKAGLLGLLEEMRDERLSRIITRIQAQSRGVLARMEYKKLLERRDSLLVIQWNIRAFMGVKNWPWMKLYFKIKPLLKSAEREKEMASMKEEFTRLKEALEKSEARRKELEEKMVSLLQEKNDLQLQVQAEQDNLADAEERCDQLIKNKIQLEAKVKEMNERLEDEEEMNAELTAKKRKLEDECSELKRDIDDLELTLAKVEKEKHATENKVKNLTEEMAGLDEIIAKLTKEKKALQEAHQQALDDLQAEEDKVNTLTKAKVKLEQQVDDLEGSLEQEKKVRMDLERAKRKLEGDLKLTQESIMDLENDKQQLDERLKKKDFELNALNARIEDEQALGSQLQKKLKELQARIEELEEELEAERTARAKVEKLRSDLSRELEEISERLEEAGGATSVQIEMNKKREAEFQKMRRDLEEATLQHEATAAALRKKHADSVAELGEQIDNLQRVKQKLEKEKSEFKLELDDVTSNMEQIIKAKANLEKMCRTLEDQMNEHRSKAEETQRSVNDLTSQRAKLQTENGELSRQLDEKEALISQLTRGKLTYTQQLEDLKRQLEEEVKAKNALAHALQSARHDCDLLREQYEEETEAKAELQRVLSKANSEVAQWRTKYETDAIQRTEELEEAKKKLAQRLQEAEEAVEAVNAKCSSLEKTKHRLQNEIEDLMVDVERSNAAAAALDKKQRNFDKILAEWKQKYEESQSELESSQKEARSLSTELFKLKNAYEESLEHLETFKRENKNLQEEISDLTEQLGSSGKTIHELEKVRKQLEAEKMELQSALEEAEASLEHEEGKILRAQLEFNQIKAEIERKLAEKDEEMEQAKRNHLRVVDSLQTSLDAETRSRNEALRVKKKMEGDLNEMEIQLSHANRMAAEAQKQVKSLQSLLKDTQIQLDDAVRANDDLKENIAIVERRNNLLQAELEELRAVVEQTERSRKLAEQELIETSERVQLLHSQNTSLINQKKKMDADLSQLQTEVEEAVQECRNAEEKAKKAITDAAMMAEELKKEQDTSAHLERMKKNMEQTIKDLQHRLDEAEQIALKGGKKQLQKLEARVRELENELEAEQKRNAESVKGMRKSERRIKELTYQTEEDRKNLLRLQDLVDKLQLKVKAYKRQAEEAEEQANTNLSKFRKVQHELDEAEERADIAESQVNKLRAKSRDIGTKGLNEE
T1 sequence (P08590 whole entry partner): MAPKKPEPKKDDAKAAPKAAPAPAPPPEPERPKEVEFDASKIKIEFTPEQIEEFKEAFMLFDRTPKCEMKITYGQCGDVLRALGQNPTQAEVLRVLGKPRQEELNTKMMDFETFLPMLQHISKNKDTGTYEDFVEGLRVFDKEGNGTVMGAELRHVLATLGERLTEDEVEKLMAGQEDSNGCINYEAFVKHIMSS
T1 sequence (P10916 whole entry partner): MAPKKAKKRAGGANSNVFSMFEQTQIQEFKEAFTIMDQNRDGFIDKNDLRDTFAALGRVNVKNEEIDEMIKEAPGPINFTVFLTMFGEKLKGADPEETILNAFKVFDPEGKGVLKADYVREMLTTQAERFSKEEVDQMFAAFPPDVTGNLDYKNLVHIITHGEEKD
Outline: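 Frozen cardiac myofibrils at 1.0 mg/mL final, KCl omitted, in a PK-LDH coupled ATPase assay; ADP production tracked as NADH loss by absorbance at 340 nm. Inhibition taken as reduced rate relative to vehicle controls, with IC50 derived.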

Row | Molecule | pIC50 ([1]; Table 4A) | pIC50 ([2]; Table 5A) | pIC50 ([1]; Table 4C) | pIC50 ([2]; Table 5C) | also measured
1 | O=C(Cn1nc(-c2ccc(OC(F)F)nc2)ccc1=O)NCc1cccc(Cl)c1 [Compound I-76, N-(3-chlorobenzyl)-2-(3-(6-(difluoromethoxy)pyridin-3-yl)-6-oxopyridazin-1(6H)-yl)acetamide] | 4.00 to 5.00 | < 4.00 |  |  | 
2 | COc1ccc(-c2ccc(=O)n(CC(=O)NCc3ccc(F)cc3)n2)cc1 [IIIb-50, N-(4-fluorobenzyl)-2-(3-(4-methoxyphenyl)-6-oxopyridazin-1(6H)-yl)acetamide] |  |  | < 4.00 | < 4.00 | 
3 | COc1ccc(-c2ccc(=O)n(CC(=O)NCc3ccco3)n2)cc1 [IIIb-37, N-(furan-2-ylmethyl)-2-(3-(4-methoxyphenyl)-6-oxopyridazin-1(6H)-yl)acetamide] |  |  | 4.00 to 5.00 | < 4.00 | 
4 | O=C(Cn1nc(-c2ccc(Cl)cc2)ccc1=O)Nc1ccc2[nH]ccc2c1 [IIIc-22, 2-(3-(4-chlorophenyl)-6-oxopyridazin-1(6H)-yl)-N-(1H-indol-5-yl)acetamide] |  |  | > 5.00 | < 4.00 | 
5 | Cn1nccc1CNC(=O)Cn1nc(-c2ccc(OC(F)F)nc2)ccc1=O [Compound I-30, 2-(3-(6-(difluoromethoxy)pyridin-3-yl)-6-oxopyridazin-1(6H)-yl)-N-((1-methyl-1H-pyrazol-5-yl)methyl)acetamide] | < 4.00 | < 4.00 |  |  | 
6 | COc1ccc(-c2ccc(=O)n(CC(=O)NCc3ccno3)n2)cc1 [IIIa-34, N-(isoxazol-5-ylmethyl)-2-(3-(4-methoxyphenyl)-6-oxopyridazin-1(6H)-yl)acetamide] |  |  | < 4.00 | < 4.00 | 
7 | CCNC(=O)Cn1nc(-c2ccc(OC(F)F)cc2)c(C)cc1=O [II-19, 2-(3-(4-(difluoromethoxy)phenyl)-4-methyl-6-oxopyridazin-1(6H)-yl)-N-ethylacetamide] |  |  |  |  | pIC50 ([1]; Table 4B): 4.00 to 5.00; pIC50 ([2]; Table 5B): < 4.00
8 | O=C(Cn1nc(-c2ccccc2)ccc1=O)NC1CC1 [IIIc-65, N-cyclopropyl-2-(6-oxo-3-phenylpyridazin-1(6H)-yl)acetamide] |  |  | < 4.00 | < 4.00 | 
9 | O=C(Cn1nc(-c2ccc(OC(F)F)nc2)ccc1=O)N[C@H]1CC12CC2 [Compound I-17, (S)-2-(3-(6-(difluoromethoxy)pyridin-3-yl)-6-oxopyridazin-1(6H)-yl)-N-(spiro[2.2]pentan-1-yl)acetamide] | 4.00 to 5.00 | < 4.00 |  |  | 
10 | CNC(=O)Cn1nc(-c2ccc(OC)cc2)ccc1=O [IIIa-21, 2-(3-(4-methoxyphenyl)-6-oxopyridazin-1(6H)-yl)-N-methylacetamide] |  |  | 4.00 to 5.00 | < 4.00 | 
11 | COc1ccccc1NC(=O)Cn1nc(-c2ccccc2)ccc1=O [IIIc-58, N-(2-methoxyphenyl)-2-(6-oxo-3-phenylpyridazin-1(6H)-yl)acetamide] |  |  | 4.00 to 5.00 | < 4.00 | 
12 | CCNC(=O)Cn1nc(-c2cnc(NC34CC(F)(C3)C4)nc2)ccc1=O [Compound I-57, N-ethyl-2-(3-(2-((3-fluorobicyclo[1.1.1]pentan-1-yl)amino)pyrimidin-5-yl)-6-oxopyridazin-1(6H)-yl)acetamide] | > 5.00 | < 4.00 |  |  | 
13 | COc1ccc(-c2ccc(=O)n(CC(=O)Nc3ccc4c(c3)OCO4)n2)cc1 [IIIb-28, N-(benzo[d][1,3]dioxol-5-yl)-2-(3-(4-methoxyphenyl)-6-oxopyridazin-1(6H)-yl)acetamide] |  |  | 4.00 to 5.00 | < 4.00 | 
14 | COc1ccc(-c2ccc(=O)n(CC(=O)Nc3cccc4[nH]ccc34)n2)c(F)c1 [IIIb-2, 2-(3-(2-fluoro-4-methoxyphenyl)-6-oxopyridazin-1(6H)-yl)-N-(1H-indol-4-yl)acetamide] |  |  | > 5.00 | < 4.00 | 
15 | CCNC(=O)Cn1nc(-c2ccc(OC(C)(F)F)cc2)ccc1=O [II-1, 2-(3-(4-(1,1-difluoroethoxy)phenyl)-6-oxopyridazin-1(6H)-yl)-N-ethylacetamide] |  |  |  |  | pIC50 ([1]; Table 4B): > 5.00; pIC50 ([2]; Table 5B): 4.00 to 5.00
16 | COCCNC(=O)Cn1nc(-c2ccc(OC)cc2)ccc1=O [IIIb-47, N-(2-methoxyethyl)-2-(3-(4-methoxyphenyl)-6-oxopyridazin-1(6H)-yl)acetamide] |  |  | < 4.00 | < 4.00 | 
17 | CCCNC(=O)Cn1nc(-c2ccc(OC(F)F)cc2)ccc1=O [II-12, 2-(3-(4-(difluoromethoxy)phenyl)-6-oxopyridazin-1(6H)-yl)-N-propylacetamide] |  |  |  |  | pIC50 ([1]; Table 4B): 4.00 to 5.00; pIC50 ([2]; Table 5B): < 4.00
18 | COc1ccc(-c2ccc(=O)n(CC(=O)Nc3ccc(C(C)C)cc3)n2)cc1 [IIIb-56, N-(4-isopropylphenyl)-2-(3-(4-methoxyphenyl)-6-oxopyridazin-1(6H)-yl)acetamide] |  |  | < 4.00 | < 4.00 | 
19 | O=C(Cn1nc(-c2ccc(OCC(F)(F)F)cc2)ccc1=O)N1CC(c2ccccc2)C1 [II-22, 2-(2-oxo-2-(3-phenylazetidin-1-yl)ethyl)-6-(4-(2,2,2-trifluoroethoxy)phenyl)pyridazin-3(2H)-one] |  |  |  |  | pIC50 ([1]; Table 4B): > 5.00; pIC50 ([2]; Table 5B): < 4.00
20 | CCNC(=O)Cn1nc(-c2cnc(OCC3CC(F)(F)C3)nc2)ccc1=O [Compound I-77, 2-(3-(2-((3,3-difluorocyclobutyl)methoxy)pyrimidin-5-yl)-6-oxopyridazin-1(6H)-yl)-N-ethylacetamide] | 4.00 to 5.00 | < 4.00 |  |  | 
21 | O=C(Cn1nc(-c2cnc(OCC(F)(F)F)nc2)ccc1=O)NC12CC(C1)C2 [Compound I-51, N-(bicyclo[1.1.1]pentan-1-yl)-2-(6-oxo-3-(2-(2,2,2-trifluoroethoxy)pyrimidin-5-yl)pyridazin-1(6H)-yl)acetamide] | > 5.00 | < 4.00 |  |  | 
22 | O=C(Cn1nc(-c2ccc(Cl)cc2)ccc1=O)Nc1ccccc1Cl [IIIc-28, N-(2-chlorophenyl)-2-(3-(4-chlorophenyl)-6-oxopyridazin-1(6H)-yl)acetamide] |  |  | > 5.00 | 4.00 to 5.00 | 
23 | O=C(Cn1nc(-c2ccc(OCC(F)(F)F)cc2)ccc1=O)NCc1ccc(CO)cc1 [II-24, N-(4-(hydroxymethyl)benzyl)-2-(6-oxo-3-(4-(2,2,2-trifluoroethoxy)phenyl)pyridazin-1(6H)-yl)acetamide] |  |  |  |  | pIC50 ([1]; Table 4B): < 4.00; pIC50 ([2]; Table 5B): < 4.00
24 | N-cyclobutyl-2-[3-[2-(2-methylpropoxy)pyrimidin-5-yl]-6-oxopyridazin-1-yl]acetamide [Compound I-79] | < 4.00 | < 4.00 |  |  | 
25 | COc1ccc(-c2ccc(=O)n(CC(=O)NCc3ccccc3F)n2)cc1 [IIIb-38, N-(2-fluorobenzyl)-2-(3-(4-methoxyphenyl)-6-oxopyridazin-1(6H)-yl)acetamide] |  |  | < 4.00 | < 4.00 | 
26 | COc1ccc(-c2ccc(=O)n(CC(=O)NCCc3ccccc3)n2)c(F)c1 [IIIb-9, 2-(3-(2-fluoro-4-methoxyphenyl)-6-oxopyridazin-1(6H)-yl)-N-phenethylacetamide] |  |  | > 5.00 | < 4.00 | 
27 | CCNC(=O)Cn1nc(-c2ccc(OC(F)F)nc2)ccc1=O [Compound I-7, 2-(3-(6-(difluoromethoxy)pyridin-3-yl)-6-oxopyridazin-1(6H)-yl)-N-ethylacetamide] | > 5.00 | < 4.00 |  |  | 
28 | O=C(Cn1nc(-c2ccc(OC(F)F)nc2)ccc1=O)NCc1ccc(Cl)cc1 [Compound I-70, N-(4-chlorobenzyl)-2-(3-(6-(difluoromethoxy)pyridin-3-yl)-6-oxopyridazin-1(6H)-yl)acetamide] | > 5.00 | < 4.00 |  |  | 
